Reference: patent US20180119123A1, “CRISPR/CAS-RELATED METHODS AND COMPOSITIONS FOR TREATING HIV INFECTION AND AIDS” (EDITAS MEDICINE, INC., priority 2015, published 2018)

Tests used:
[1] = tested on: human mobilized peripheral blood CD34^+ HSCs; assay: Maintenance of HSC phenotype (CD34/CD90 co-staining, flow cytometry); type: cell-based; conditions: Cas9 and CCR5 gRNA plasmids after pre-treatment with UM171; 96 hours
Experimental: Human CD34^+ HSCs cells from mobilized peripheral blood (AllCells) were thawed into StemSpan Serum-Free Expansion Medium (SFEM™, StemCell Technologies) containing 100 ng/mL each of the following cytokines: human stem cell factor (SCF), thrombopoietin (TPO), and flt-3 ligand (FL) (all from Peprotech). Cells were grown for 3 days in a humidified incubator and 5% CO2 20% O2. […] The published use of UM171 involved prolonged exposure of HSCs to the small molecule for ex vivo expansion of HSCs. In the current experiment, HSCs were exposed to UM171 for 2 hours before and 24 hours after delivery of Cas9 and gRNA plasmid DNA. This UM171 treatment protocol was based on pilot studies performed by the inventors that indicated acute pre-treatment with UM171 before lentivirus vector mediated gene delivery improved HSC viability compared to HSCs treated with vehicle (dimethylsulfoxide, DMSO, Sigma) alone. After the 2-hour pretreatment with UM171, 1 million […] HSCs were Nucleofected™ with the Amaxa™ 4D Nucleofector™ device (Lonza), Program EO100 using components of the P3 Primary Cell 4D-Nucleofector Kit™ (Lonza) according to the manufacturer's instructions. […]

[2] = tested on: human mobilized peripheral blood CD34^+ HSCs; assay: Fold change in CD34+ cell number (trypan blue count) 96 hours after Nucleofection; type: cell-based; conditions: Nucleofection with wild type Cas9 and CCR5-U43 gRNA plasmid DNA + vehicle treatment (no UM171)
Experimental: (§1) Human CD34^+ HSCs cells from mobilized peripheral blood (AllCells) were thawed into StemSpan Serum-Free Expansion Medium (SFEM™, StemCell Technologies) containing 100 ng/mL each of the following cytokines: human stem cell factor (SCF), thrombopoietin (TPO), and flt-3 ligand (FL) (all from Peprotech). Cells were grown for 3 days in a humidified incubator and 5% CO2 20% O2. […] The published use of UM171 involved prolonged exposure of HSCs to the small molecule for ex vivo expansion of HSCs. In the current experiment, HSCs were exposed to UM171 for 2 hours before and 24 hours after delivery of Cas9 and gRNA plasmid DNA. This UM171 treatment protocol was based on pilot studies performed by the inventors that indicated acute pre-treatment with UM171 before lentivirus vector mediated gene delivery improved HSC viability compared to HSCs treated with vehicle (dimethylsulfoxide, DMSO, Sigma) alone. […] At 96 hours after Nucleofection™, CD34^+ cells were counted for by trypan blue exclusion and divided into 3 portions for the following analyses: a) flow cytometry analysis for assessment of viability by co-staining with 7-Aminoactinomycin-D (7-AAD) and allophycocyanin (APC)-conjugated Annexin-V antibody (ebioscience); b) flow cytometry analysis for maintenance of HSC phenotype (after co-staining with phycoerythrin (PE)-conjugated anti-human CD34 antibody and fluorescein isothicyanate (FITC)-conjugated anti-human CD90, both from BD Bioscience; c) hematopoietic colony forming cell (CFC) analysis by plating 1500 cells in semi-solid methylcellulose based Methocult medium (StemCell Technologies) that supports differentiation of erythroid and myeloid blood cell colonies from HSCs and serves as a surrogate assay to evaluate HSC multipotency and differentiation potential ex vivo; d) genomic DNA analysis for detection of editing at the CCR5 locus. […]

[3] = tested on: human mobilized peripheral blood CD34^+ HSCs; assay: Viability by 7-AAD / Annexin-V flow cytometry 96 hours after Nucleofection; type: cell-based; conditions: Nucleofected with Cas9 and CCR5 gRNA plasmids after pre-treatment with UM171; 96 hours
Experimental: as §1

CD34^+ HSCs = assay: Hematopoietic colony forming cell (CFC) assay in Methocult medium; type: cell-based, human; conditions: Nucleofection with wild-type Cas9 and CCR5-U43 gRNA plasmid DNA + vehicle (no UM171); two weeks
Experimental: Human CD34^+ HSCs cells from mobilized peripheral blood (AllCells) were thawed into StemSpan Serum-Free Expansion Medium (SFEM™, StemCell Technologies) containing 100 ng/mL each of the following cytokines: human stem cell factor (SCF), thrombopoietin (TPO), and flt-3 ligand (FL) (all from Peprotech). Cells were grown for 3 days in a humidified incubator and 5% CO2 20% O2. […] The published use of UM171 involved prolonged exposure of HSCs to the small molecule for ex vivo expansion of HSCs. In the current experiment, HSCs were exposed to UM171 for 2 hours before and 24 hours after delivery of Cas9 and gRNA plasmid DNA. This UM171 treatment protocol was based on pilot studies performed by the inventors that indicated acute pre-treatment with UM171 before lentivirus vector mediated gene delivery improved HSC viability compared to HSCs treated with vehicle (dimethylsulfoxide, DMSO, Sigma) alone. After the 2-hour pretreatment with UM171, 1 million […] HSCs were Nucleofected™ with the Amaxa™ 4D Nucleofector™ device (Lonza), Program EO100 using components of the P3 Primary Cell 4D-Nucleofector Kit™ (Lonza) according to the manufacturer's instructions. Briefly, one million cells were suspended in Nucleofector™ solution and the following amounts of plasmid DNA were added to the cell suspension: 1250 ng plasmid expressing CCR5 gRNA (CCR5-U43) from the human U6 promoter and 3750 ng plasmid expressing wild-type S. pyogenes Cas 9 transcriptionally regulated by the CMV promoter. After Nucleofection™, cells were plated into Stemspan-SFEM™ supplemented with SCF, TPO, FL and 40 nM UM171. After overnight incubation, HSCs were plated in Stemspan-SFEM™ plus cytokines without UM171. At 96 hours after Nucleofection™, CD34^+ cells were counted for by trypan blue exclusion and divided into 3 portions for the following analyses: a) flow cytometry analysis for assessment of viability by co-staining with 7-Aminoactinomycin-D (7-AAD) and allophycocyanin (APC)-conjugated Annexin-V antibody (ebioscience); b) flow cytometry analysis for maintenance of HSC phenotype (after co-staining with phycoerythrin (PE)-conjugated anti-human CD34 antibody and fluorescein isothicyanate (FITC)-conjugated anti-human CD90, both from BD Bioscience; c) hematopoietic colony forming cell (CFC) analysis by plating 1500 cells in semi-solid methylcellulose based Methocult medium (StemCell Technologies) that supports differentiation of erythroid and myeloid blood cell colonies from HSCs and serves as a surrogate assay to evaluate HSC multipotency and differentiation potential ex vivo; d) genomic DNA analysis for detection of editing at the CCR5 locus. Genomic DNA was extracted from HSCs 96 hours after Nucleofection™, and CCR5 locus-specific PCR reactions were performed.
To evaluate maintenance of HSC potency and differentiation potential, two weeks after plating CD34^+ HSCs in CFC assays, hematopoietic activity was quantified based on scoring the HSC progeny by enumerating the total number of hematopoietic colony forming units (CFU) and the frequencies of specific blood cell phenotypes, including: mixed myeloid/erythroid (Granulocyte-erythroid-monocyte macrophage, CFU-GEMM), myeloid (CFU-macrophage (M), granulocyte-macrophage (CFU-GM)) and erythroid (CFU-E) colonies. CD34^+ HSCs that were Nucleofected™ after UM171 pre-treatment maintained CFC potential compared to un-Nucleofected™ HSCs (Table 12). In contrast, CD34^+ HSCs that were Nucleofected™ without UM171 pre-treatment had reduced CFC potential (lower total CFC counts and reduced numbers of mixed-phenotype colonies (CFU-GEMM) and erythroid colonies (CFU-E)) in comparison to un-Nucleofected™ CD34^+ HSCs.
Human CD34^+ HSCs cells from mobilized peripheral blood (AllCells) were thawed into StemSpan Serum-Free Expansion Medium (SFEM, StemCell Technologies) containing 100 ng/mL each of the following cytokines: human stem cell factor (SCF), thrombopoietin (TPO), and flt-3 ligand (FL) (all from Peprotech). […]

Sequence: GCUGCCGCCCAGUGGGACUU (chemistry not given here) [CCR5-U43, S. pyogenes gRNA targeting CCR5; delivered as U6-promoter plasmid with Cas9 plasmid]
- co-expression of CD34 and CD90 [1]: maintained co-expression of CD34 and CD90
- Fold change in cell number of CD34^+ cells (96 hours vs. time 0 cell number) [2]: 0.6
- viability (7-AAD^− AnnexinV^-) [3]: > 93%
- Number of colony forming units: E (CD34^+ HSCs): 18 colony forming units per 1500 CD34^+ HSCs plated
- Number of colony forming units: G (CD34^+ HSCs): 22 colony forming units per 1500 CD34^+ HSCs plated
- Number of colony forming units: GEMM (CD34^+ HSCs): 1 colony forming units per 1500 CD34^+ HSCs plated
- Number of colony forming units: GM (CD34^+ HSCs): 1 colony forming units per 1500 CD34^+ HSCs plated
- Number of colony forming units: M (CD34^+ HSCs): 6 colony forming units per 1500 CD34^+ HSCs plated
- Number of colony forming units: Total (CD34^+ HSCs): 28 colony forming units per 1500 CD34^+ HSCs plated
